Blank lines part the entries; values can stand above or below the compound they belong to.
Legend:
cloned rat NK1 receptor = cloned rat NK1 receptor (Rattus norvegicus, UniProt P14600); conditions: cited from earlier work
[1] = target: T1, cholecystokinin-B receptor (Homo sapiens, UniProt P32239); conditions: human receptor with valine 319 substituted by leucine vs human receptor; cited from earlier work
T1 sequence (P32239 1-447 V349L): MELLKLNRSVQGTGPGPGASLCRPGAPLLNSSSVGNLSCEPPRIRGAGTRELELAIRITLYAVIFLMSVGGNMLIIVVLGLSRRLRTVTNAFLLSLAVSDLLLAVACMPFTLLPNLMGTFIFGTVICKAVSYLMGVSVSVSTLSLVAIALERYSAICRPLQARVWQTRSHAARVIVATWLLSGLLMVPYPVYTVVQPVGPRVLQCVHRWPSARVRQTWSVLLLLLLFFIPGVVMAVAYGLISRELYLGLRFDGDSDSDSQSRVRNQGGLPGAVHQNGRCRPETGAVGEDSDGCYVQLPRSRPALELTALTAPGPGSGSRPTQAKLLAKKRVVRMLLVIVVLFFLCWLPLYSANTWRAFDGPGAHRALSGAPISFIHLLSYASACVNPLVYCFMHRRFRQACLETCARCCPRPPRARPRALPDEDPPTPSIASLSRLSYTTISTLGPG

dog B1 = target: T2, dog B1 (Canis lupus familiaris, UniProt Q9BDQ5, D322E/F324Y/R319K); assay: [3H]-des-Arg10-kallidin binding, 293E membranes, dog B1 (canine/human chimera); conditions: 0.6 nM [3H]-dAKd
T2 construct: the chimeric canine/human receptor described above was used in the experiments described below; C-terminal cytoplasmic tail of human bradykinin B1 receptor (fusion partner of the chimera); expressed in transfected cells; host or cells: 293-EBNA (293E) cells, membranes
T2 sequence (Q9BDQ5 with tags, fused parts or gaps R319K/D322E/F324Y): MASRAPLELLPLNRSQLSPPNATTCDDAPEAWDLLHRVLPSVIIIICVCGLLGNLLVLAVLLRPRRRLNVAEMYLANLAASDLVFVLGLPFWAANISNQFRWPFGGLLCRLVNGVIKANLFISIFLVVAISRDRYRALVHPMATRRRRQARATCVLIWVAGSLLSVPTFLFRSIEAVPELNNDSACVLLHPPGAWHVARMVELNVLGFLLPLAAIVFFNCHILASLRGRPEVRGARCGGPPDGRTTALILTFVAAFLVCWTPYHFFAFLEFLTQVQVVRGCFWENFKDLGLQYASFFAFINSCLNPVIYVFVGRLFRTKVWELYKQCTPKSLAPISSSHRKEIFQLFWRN
Source text: Additionally, a canine/human chimeric bradykinin B1 receptor comprising amino acids 1 to 320 of the canine sequence and amino acids 319–353 of human bradykinin B1 receptor was generated. Any number of chimeric molecules, for example, a chimera comprising amino acids 1–315 of the canine sequence and amino acids 314–353 of the human sequence can be used.
Membrane preparations for use in accordance with the methods of the present invention were generated as follows. 293E cells expressing B1 receptors were harvested and pelleted. Cells were washed once with PBS and once with a membrane buffer (for example, 10 mM HEPES pH 7.5, 1 μM phosphoramidon, 3 μM amastatin, 1 μM captopril, 2 μM dithiothreitol (DTT)). Cells were resuspended in membrane buffer and Dounce homogenized on ice 35 times. The membranes were collected by centrifugation at 15,000×g for 30 min. at 4° C. and resuspended in membrane buffer containing 0.2% bovine serum albumin (BSA) at a final concentration of approximately 5×10^7 cell equivalents per ml. Aliquots were flash frozen and stored at −80° C. […]
(§1) The method of the present invention employs a binding assay such as the one described below. […] 50 μl of scintillation fluid was added to each well and plates were counted in a Wallac Microbeta® TriLux for 10 min. per well.

[2] = target: rhesus macaque B1 receptor; assay: [3H]-des-Arg10-kallidin binding, 293E membranes, rhesus macaque B1; design: species or system rhesus macaque (Macaca mulatta); conditions: 0.6 nM [3H]-dAKd
Experimental: (§2) Membrane preparations for use in accordance with the methods of the present invention were generated as follows. 293E cells expressing B1 receptors were harvested and pelleted. Cells were washed once with PBS and once with a membrane buffer (for example, 10 mM HEPES pH 7.5, 1 μM phosphoramidon, 3 μM amastatin, 1 μM captopril, 2 μM dithiothreitol (DTT)). Cells were resuspended in membrane buffer and Dounce homogenized on ice 35 times. The membranes were collected by centrifugation at 15,000×g for 30 min. at 4° C. and resuspended in membrane buffer containing 0.2% bovine serum albumin (BSA) at a final concentration of approximately 5×10^7 cell equivalents per ml. Aliquots were flash frozen and stored at −80° C. Frozen aliquots were subsequently thawed, diluted, and sonicated on ice using a Branson Sonifier® 250 (4×5 sec, 40% output).
(§3) Prior to use in a binding assay, a membrane preparation is “calibrated” as described below to determine the amount of membrane preparation to be used. […]
as §1

human B1 receptor = target: T3, human B1 receptor (Homo sapiens, UniProt P46663); assay: [3H]-des-Arg10-kallidin binding, 293E membranes, human B1; conditions: 0.6 nM [3H]-dAKd
T3 construct: expressed in transfected cells; host or cells: 293-EBNA (293E) cells, membranes
T3 sequence (P46663 1-353): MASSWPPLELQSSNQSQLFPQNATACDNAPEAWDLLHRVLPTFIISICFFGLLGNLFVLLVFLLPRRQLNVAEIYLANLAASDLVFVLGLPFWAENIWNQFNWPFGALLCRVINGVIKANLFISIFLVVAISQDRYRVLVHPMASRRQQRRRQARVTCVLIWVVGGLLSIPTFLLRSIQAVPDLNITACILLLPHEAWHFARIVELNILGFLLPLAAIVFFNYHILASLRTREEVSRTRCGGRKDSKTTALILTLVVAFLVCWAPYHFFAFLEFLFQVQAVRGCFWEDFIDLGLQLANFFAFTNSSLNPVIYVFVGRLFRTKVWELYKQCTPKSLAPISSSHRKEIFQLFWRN
Source text: Prior to use in a binding assay, a membrane preparation is “calibrated” as described below to determine the amount of membrane preparation to be used. A frozen sample of a membrane preparation is thawed and the preparation diluted in assay buffer to obtain several different concentrations of membranes, for example, 1:5, 1:10, 1:20, 1:40 and so on. The diluted membrane preparation is sonicated in a bath style sonicator for 15 seconds at room temperature. […]

pig B1 = assay: [3H]-des-Arg10-kallidin binding, 293E membranes, pig B1; conditions: 0.6 nM [3H]-dAKd
Experimental: as §2, §3, §1

rabbit B1 = target: T4, rabbit B1 (Oryctolagus cuniculus, UniProt P48748); assay: [3H]-des-Arg10-kallidin binding, 293E membranes, rabbit B1; conditions: 0.6 nM [3H]-dAKd
T4 construct: expressed in transfected cells; host or cells: 293-EBNA (293E) cells, membranes
T4 sequence (P48748 1-352): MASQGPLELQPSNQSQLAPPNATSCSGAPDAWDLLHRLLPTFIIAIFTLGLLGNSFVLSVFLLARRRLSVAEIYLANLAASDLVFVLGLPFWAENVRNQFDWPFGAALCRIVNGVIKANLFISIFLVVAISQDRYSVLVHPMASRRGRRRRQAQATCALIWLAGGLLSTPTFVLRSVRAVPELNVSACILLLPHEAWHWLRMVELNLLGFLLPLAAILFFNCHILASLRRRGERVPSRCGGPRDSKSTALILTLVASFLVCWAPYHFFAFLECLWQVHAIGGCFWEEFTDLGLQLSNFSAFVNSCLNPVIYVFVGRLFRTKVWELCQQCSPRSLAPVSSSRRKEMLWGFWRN
Experimental: as §2, §3, §1

tree shrew B1 receptor = assay: [3H]-des-Arg10-kallidin binding, 293E membranes, tree shrew B1; design: species or system tree shrew (Tupaia minor); conditions: 0.6 nM [3H]-dAKd
Experimental: as §2, §3, §1

cloned rat NK1 receptor, sequence (P14600 whole entry): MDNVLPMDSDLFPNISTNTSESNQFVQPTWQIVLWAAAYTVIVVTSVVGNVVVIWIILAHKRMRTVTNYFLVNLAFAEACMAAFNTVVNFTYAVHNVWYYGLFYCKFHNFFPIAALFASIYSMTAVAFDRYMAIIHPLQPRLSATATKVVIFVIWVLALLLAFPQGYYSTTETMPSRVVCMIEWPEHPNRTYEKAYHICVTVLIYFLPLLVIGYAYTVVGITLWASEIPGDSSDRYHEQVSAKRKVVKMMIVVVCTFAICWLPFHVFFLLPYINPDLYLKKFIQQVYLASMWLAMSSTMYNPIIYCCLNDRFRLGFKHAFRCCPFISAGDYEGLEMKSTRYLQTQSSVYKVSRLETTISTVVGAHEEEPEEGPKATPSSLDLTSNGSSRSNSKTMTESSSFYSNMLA
tree shrew B1 receptor, sequence (as listed by the source): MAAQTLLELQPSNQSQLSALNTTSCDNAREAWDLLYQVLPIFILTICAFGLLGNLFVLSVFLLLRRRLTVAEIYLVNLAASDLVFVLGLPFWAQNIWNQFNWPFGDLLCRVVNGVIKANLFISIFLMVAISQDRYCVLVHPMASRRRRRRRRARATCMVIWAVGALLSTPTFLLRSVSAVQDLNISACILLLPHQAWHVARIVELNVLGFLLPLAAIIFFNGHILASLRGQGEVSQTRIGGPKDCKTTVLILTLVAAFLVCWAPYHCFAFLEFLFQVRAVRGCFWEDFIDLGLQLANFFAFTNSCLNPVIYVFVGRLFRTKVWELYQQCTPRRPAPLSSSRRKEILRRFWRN
pig B1, sequence (as listed by the source): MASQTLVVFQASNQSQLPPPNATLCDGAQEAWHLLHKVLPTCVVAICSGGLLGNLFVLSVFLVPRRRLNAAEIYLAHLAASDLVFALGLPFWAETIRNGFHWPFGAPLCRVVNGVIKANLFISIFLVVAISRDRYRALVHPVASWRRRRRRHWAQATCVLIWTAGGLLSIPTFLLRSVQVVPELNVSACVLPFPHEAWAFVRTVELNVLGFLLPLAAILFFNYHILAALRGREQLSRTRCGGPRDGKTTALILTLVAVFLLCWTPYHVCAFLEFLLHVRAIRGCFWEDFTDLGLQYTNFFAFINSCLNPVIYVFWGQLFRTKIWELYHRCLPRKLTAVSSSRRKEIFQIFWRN
rhesus macaque B1 receptor, sequence (as listed by the source): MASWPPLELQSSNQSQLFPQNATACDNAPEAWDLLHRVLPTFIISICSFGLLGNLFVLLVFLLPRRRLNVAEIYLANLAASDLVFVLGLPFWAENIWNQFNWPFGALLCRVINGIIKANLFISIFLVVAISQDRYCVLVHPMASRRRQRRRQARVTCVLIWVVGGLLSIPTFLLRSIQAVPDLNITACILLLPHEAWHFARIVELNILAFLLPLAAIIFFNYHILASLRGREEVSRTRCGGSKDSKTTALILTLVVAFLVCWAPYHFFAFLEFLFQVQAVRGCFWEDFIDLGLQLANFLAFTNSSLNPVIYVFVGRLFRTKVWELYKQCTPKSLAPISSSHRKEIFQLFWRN

Compound: COc1ccccc1CN[C@H]1C2CCN(CC2)[C@H]1C(c1ccccc1)c1ccccc1 [CP-96,345]
IC50 (cloned rat NK1 receptor): 40 nM

Compound: Cc1cccc(NC(=O)N[C@@H]2N=C(c3ccccc3)c3ccccc3N(C)C2=O)c1 [Compound L365260]
decrease of binding affinity [1]: 20 fold

affinity (K1) at dog B1, in words (dog B1): low nM potency
affinity (K1) at rhesus macaque B1, in words [2]: inactivity
affinity (K1) at human B1, in words (human B1 receptor): inactivity
affinity (K1) at pig B1, in words (pig B1): weak activity
affinity (K1) at rabbit B1, in words (rabbit B1): weak activity
affinity (K1) at tree shrew B1, in words (tree shrew B1 receptor): inactivity
Compound: [des-Arg^9]BK (RPPGFSPF) [dABk]
